Results: US20260068885A1, “HERBICIDAL COMPOSITIONS” (BAYER AKTIENGESELLSCHAFT, priority 2022, published 2026)

How the values were obtained:
Assay in all cases: Post-emergence herbicidal action against harmful plants (greenhouse)
Format in all cases: in vivo
[1] = tested on: Xanthium strumarium (XANST)
Description: (§1) Seeds of monocotyledonous and dicotyledonous weed and crop plants are laid out in sandy loam soil in wood-fibre pots, covered with soil and cultivated in a greenhouse under good growth conditions. 2 to 3 weeks after sowing, the test plants are treated at the one-leaf stage. The compounds of the invention, formulated in the form of wettable powders (WP) or as emulsion concentrates (EC), are then sprayed onto the green parts of the plants in the form of an aqueous suspension or emulsion at a water application rate equivalent to 600 to 800 l/ha, with addition of 0.2% wetting agent. After the test plants have been left to stand in the greenhouse under optimal growth conditions for about 3 weeks, the action of the preparations is assessed visually in comparison to untreated controls (herbicidal action in percent (%): 100% activity=the plants have died, 0% activity=like control plants). […] The tables below illustrate, in an illustrative manner, the post-emergence herbicidal action of the compounds of the invention, the herbicidal activity being stated in percent.
(§2) In the tables that follow, the abbreviations mean the following: • E: means the synergism value to be expected according to the Colby formula. • Δ SYN: means the difference between the actual and expected synergism value. • DAT: means days after treatment.

[2] = tested on: Sorghum halepense (SORHA)
Description: as §1, §2

[3] = tested on: Brachiaria platyphylla (BRAPP)
Description: as §1, §2

[4] = tested on: Pharbitis purpurea (PHBPU)
[5] = tested on: Polygonum convolvulus (POLCO)
Solanum nigrum (SOLNI) = tested on: Solanum nigrum (SOLNI)
Description: as §1, with “[…],” for “left to stand in the greenhouse under optimal growth conditions for about 3 weeks,”
as §2

[6] = tested on: Erigeron bonariensis (ERIBO)
Description: as §1, with “[…],” for “left to stand in the greenhouse under optimal growth conditions for about 3 weeks,”
as §2

Setaria viridis (SETVI) = tested on: Setaria viridis (SETVI)
Description: as §1, with “[…],” for “left to stand in the greenhouse under optimal growth conditions for about 3 weeks,”
as §2

Cyperus iria (CYPIR) = tested on: Cyperus iria (CYPIR)
Description: as §1, with “[…],” for “left to stand in the greenhouse under optimal growth conditions for about 3 weeks,”
as §2

Emex australis (EMEAU) = tested on: Emex australis (EMEAU)
Description: as §1, §2

[7] = tested on: Euphorbia heterophylla (EPHHL); settings: 21 DAT
Description: as §1, §2

[8] = tested on: Xanthium strumarium (XANST); settings: for Herbicidal efficacy [%] against XANST 10 DAT: application rate 0.3 g a.i./ha
[9] = tested on: Abutilon theophrasti (ABUTH)
Description: as §1, with “[…],” for “left to stand in the greenhouse under optimal growth conditions for about 3 weeks,”
as §2

[10] = application rate 0.00625 g a.i./ha
[11] = application rate 0.025 g a.i./ha
[12] = application rate 0.025 g a.i./ha, 21 DAT

`CCn1ncc(C(=O)c2ccc(S(C)(=O)=O)c(OCCOC)c2C)c1OC(C)OC(=O)OC` (stereo not shown) [tolpyralate] was tested, and the “Herbicidal efficacy [%] against XANST 21 DAT” value ([1]; application rate 0.5 g a.i./ha) was 30%, the “Herbicidal efficacy [%] against XANST 21 DAT” value ([1]; application rate 2 g a.i./ha) was 70% and the “Herbicidal efficacy [%] against SORHA 10 DAT” value ([2]; application rate 2 g a.i./ha) was 85%. The “Herbicidal efficacy [%] against SORHA 21 DAT” value ([2]; application rate 2 g a.i./ha) was 50%, the Herbicidal efficacy ([3]; BRAPP 10 DAT, 0.5 g a.i./ha) was 30% and the Herbicidal efficacy ([3]; BRAPP 21 DAT, 0.5 g a.i./ha) was 20%. It also gave a Herbicidal efficacy ([3]; BRAPP 21 DAT, 2 g a.i./ha) of 80%, a Herbicidal efficacy ([4]; PHBPU 10 DAT, 0.5 g a.i./ha) of 10% and a Herbicidal efficacy ([4]; PHBPU 21 DAT, 0.5 g a.i./ha) of 10%. The Herbicidal efficacy ([5]; POLCO 10 DAT, 0.5 g a.i./ha) was 30%, the Herbicidal efficacy ([5]; POLCO 21 DAT, 0.5 g a.i./ha) was 20% and the “Herbicidal efficacy [%] against SOLNI 21 DAT” value (Solanum nigrum (SOLNI); application rate 0.5 g a.i./ha, 21 DAT) was 85%. For the same molecule, the Herbicidal efficacy ([6]; ERIBO 10 DAT, 2 g a.i./ha) was 90%, the Herbicidal efficacy ([6]; ERIBO 21 DAT, 2 g a.i./ha) was 85% and the Herbicidal efficacy (Setaria viridis (SETVI); SETVI 21 DAT, 0.5 g a.i./ha) was 60%. It also gave a Herbicidal efficacy (Setaria viridis (SETVI); SETVI 21 DAT, 2 g a.i./ha) of 88%, a Herbicidal efficacy (Cyperus iria (CYPIR); CYPIR 10 DAT, 0.5 g a.i./ha) of 40% and a Herbicidal efficacy (Cyperus iria (CYPIR); CYPIR 21 DAT, 0.5 g a.i./ha) of 20%. It also gave a Herbicidal efficacy (Cyperus iria (CYPIR); CYPIR 21 DAT, 2 g a.i./ha) of 30%.
With `COC(=O)[C@@H](C)O/N=C/c1cc(-n2c(=O)cc(C(F)(F)F)n(C)c2=O)c(F)cc1Cl` [flufenoximacil] the “Herbicidal efficacy [%] against XANST 21 DAT” value [1, 10] was 10%, the “Herbicidal efficacy [%] against SORHA 10 DAT” value [2, 10] was 20% and the “Herbicidal efficacy [%] against EMEAU 10 DAT” value (Emex australis (EMEAU); application rate 0.00625 g a.i./ha, 10 DAT) was 50%. For the same molecule, the “Herbicidal efficacy [%] against EMEAU 21 DAT” value (Emex australis (EMEAU); application rate 0.00625 g a.i./ha, 21 DAT) was 10%, the “Herbicidal efficacy [%] against EPHHL 21 DAT” value [7, 10] was 40% and the “Herbicidal efficacy [%] against EPHHL 21 DAT” value [7, 11] was 88%. For the same molecule, the “Herbicidal efficacy [%] against PHBPU 21 DAT” value [4, 12] was 75%, the “Herbicidal efficacy [%] against POLCO 21 DAT” value [5, 12] was 60% and the “Herbicidal efficacy [%] against ERIBO 21 DAT” value [6, 11] was 40%. For the same molecule, the “Herbicidal efficacy [%] against ERIBO 21 DAT” value ([6]; application rate 0.1 g a.i./ha) was 60%.
With `C=C[C@]1(C(=O)N[C@H]2C=C[C@@H](C(=O)OC)C2)CC(c2cc(F)cc(F)c2)=NO1` [P2, methyl (1S,4R)-4-[[(5S)-3-(3,5-difluorophenyl)-5-vinyl-4H-isoxazole-5-carbonyl]amino]cyclopent-2-ene-1-carboxylate] the “Herbicidal efficacy [%] against XANST 21 DAT” value ([1]; application rate 0.3 g a.i./ha) was 10%, the “Herbicidal efficacy [%] against SORHA 10 DAT” value ([2]; application rate 0.3 g a.i./ha) was 80% and the Herbicidal efficacy (Emex australis (EMEAU); EMEAU 21 DAT, 0.3 g a.i./ha) was 88%. The Herbicidal efficacy (Emex australis (EMEAU); EMEAU 21 DAT, 1.2 g a.i./ha) was 88%, the Herbicidal efficacy ([3]; BRAPP 21 DAT, 0.3 g a.i./ha) was 85% and the “Herbicidal efficacy [%] against XANST 10 DAT” value [8] was 20%. For the same molecule, the Herbicidal efficacy ([5]; POLCO 21 DAT, 0.3 g a.i./ha) was 90%, the Herbicidal efficacy (Solanum nigrum (SOLNI); SOLNI 10 DAT, 0.3 g a.i./ha) was 60% and the Herbicidal efficacy (Solanum nigrum (SOLNI); SOLNI 21 DAT, 1.2 g a.i./ha) was 40%. For the same molecule, the Herbicidal efficacy ([9]; ABUTH 10 DAT, 0.3 g a.i./ha) was 20%, the Herbicidal efficacy ([9]; ABUTH 10 DAT, 1.2 g a.i./ha) was 30% and the Herbicidal efficacy ([9]; ABUTH 21 DAT, 0.3 g a.i./ha) was 10%. The Herbicidal efficacy ([9]; ABUTH 21 DAT, 1.2 g a.i./ha) was 20%, the Herbicidal efficacy ([6]; ERIBO 10 DAT, 0.3 g a.i./ha) was 0% and the Herbicidal efficacy ([6]; ERIBO 21 DAT, 0.3 g a.i./ha) was 0%. The Herbicidal efficacy (Cyperus iria (CYPIR); CYPIR 10 DAT, 0.3 g a.i./ha) was 50%, the Herbicidal efficacy (Cyperus iria (CYPIR); CYPIR 10 DAT, 1.2 g a.i./ha) was 88% and the Herbicidal efficacy (Cyperus iria (CYPIR); CYPIR 21 DAT, 0.3 g a.i./ha) was 40%. For the same molecule, the Herbicidal efficacy (Cyperus iria (CYPIR); CYPIR 21 DAT, 1.2 g a.i./ha) was 88%.
`C=C[C@]1(C(=O)N[C@H]2CO[C@@H](C(=O)OC)C2)CC(c2cc(F)cc(F)c2)=NO1` (relative stereo) [P1, methyl (2R*,4R*)-4-[[(5S)-3-(3,5-difluorophenyl)-5-vinyl-4H-isoxazole-5-carbonyl]amino]tetrahydrofuran-2-carboxylate] was tested, and the “Herbicidal efficacy [%] against XANST 21 DAT” value ([1]; application rate 0.3 g a.i./ha) was 40%, the “Herbicidal efficacy [%] against SORHA 21 DAT” value ([2]; application rate 0.3 g a.i./ha) was 90% and the “Herbicidal efficacy [%] against SORHA 21 DAT” value ([2]; application rate 1.2 g a.i./ha) was 90%. For the same molecule, the Herbicidal efficacy (Emex australis (EMEAU); EMEAU 10 DAT, 1.2 g a.i./ha) was 70%, the Herbicidal efficacy (Emex australis (EMEAU); EMEAU 21 DAT, 1.2 g a.i./ha) was 80% and the “Herbicidal efficacy [%] against XANST 10 DAT” value [8] was 60%. For the same molecule, the Herbicidal efficacy (Solanum nigrum (SOLNI); SOLNI 10 DAT, 0.3 g a.i./ha) was 40%, the Herbicidal efficacy ([9]; ABUTH 10 DAT, 0.3 g a.i./ha) was 70% and the Herbicidal efficacy ([9]; ABUTH 21 DAT, 1.2 g a.i./ha) was 85%.
For `Cc1cccc(C)c1-n1c(=O)c2cc(C(=O)C3C(=O)CCCC3=O)ccc2n(C)c1=O` [benquitrione], the “Herbicidal efficacy [%] against SORHA 10 DAT” value ([2]; application rate 1.5 g a.i./ha) was 10%, the “Herbicidal efficacy [%] against SORHA 21 DAT” value ([2]; application rate 1.5 g a.i./ha) was 0% and the “Herbicidal efficacy [%] against SORHA 10 DAT” value ([2]; application rate 6 g a.i./ha) was 20%. For the same molecule, the “Herbicidal efficacy [%] against SORHA 21 DAT” value ([2]; application rate 6 g a.i./ha) was 10%, the Herbicidal efficacy ([3]; BRAPP 10 DAT, 1.5 g a.i./ha) was 20% and the Herbicidal efficacy ([3]; BRAPP 10 DAT, 6 g a.i./ha) was 80%. It also gave a Herbicidal efficacy ([3]; BRAPP 21 DAT, 1.5 g a.i./ha) of 10%, a Herbicidal efficacy ([3]; BRAPP 21 DAT, 6 g a.i./ha) of 20% and a Herbicidal efficacy ([4]; PHBPU 10 DAT, 6 g a.i./ha) of 40%. For the same molecule, the Herbicidal efficacy ([4]; PHBPU 21 DAT, 6 g a.i./ha) was 20%, the “Herbicidal efficacy [%] against XANST 21 DAT” value ([8]; application rate 6 g a.i./ha, 21 DAT) was 50% and the Herbicidal efficacy ([5]; POLCO 10 DAT, 6 g a.i./ha) was 20%. It also gave a Herbicidal efficacy (Solanum nigrum (SOLNI); SOLNI 21 DAT, 6 g a.i./ha) of 85%, a Herbicidal efficacy ([9]; ABUTH 10 DAT, 1.5 g a.i./ha) of 20% and a Herbicidal efficacy ([9]; ABUTH 10 DAT, 6 g a.i./ha) of 40%. The Herbicidal efficacy ([9]; ABUTH 21 DAT, 6 g a.i./ha) was 10%, the Herbicidal efficacy ([6]; ERIBO 10 DAT, 6 g a.i./ha) was 85% and the Herbicidal efficacy ([6]; ERIBO 21 DAT, 6 g a.i./ha) was 85%. The Herbicidal efficacy (Setaria viridis (SETVI); SETVI 10 DAT, 6 g a.i./ha) was 88%, the Herbicidal efficacy (Setaria viridis (SETVI); SETVI 21 DAT, 1.5 g a.i./ha) was 50% and the Herbicidal efficacy (Cyperus iria (CYPIR); CYPIR 10 DAT, 1.5 g a.i./ha) was 40%. The Herbicidal efficacy (Cyperus iria (CYPIR); CYPIR 21 DAT, 1.5 g a.i./ha) was 30%.
